Test results: PMC6958387, “Biological Evaluation of Arylsemicarbazone Derivatives as Potential Anticancer Agents” (Pharmaceuticals, 2019)

Assays:
PIM1 = target: T1, PIM1 (Homo sapiens, UniProt P11309); assay: Kinase inhibition assay (ADP-Glo); format: biochemical; conditions: 10 µM ATP
T1 construct: made in house; host or cells: bacteria
Method: HsPIM1 (human proto-oncogene, recombinant, expressed in bacteria) was assayed in buffer B with 0.8 µg/µL of histone H1 (Sigma #H5505) as substrate.

CK1δ/ε = assay: Kinase inhibition assay (ADP-Glo); format: biochemical, Sus scrofa domesticus; conditions: 10 µM ATP
Method: SscCK1δ/ε (Sus scrofa domesticus, casein kinase 1δ/ε, affinity purified from porcine brain) was assayed in buffer A, with 0.022 μg/μL of the following peptide: RRKHAAIGSpAYSITA (“Sp” stands for phosphorylated serine) as CK1-specific substrate.

HASPIN = target: T2, HASPIN (Homo sapiens, UniProt Q8TF76); assay: Kinase inhibition assay (ADP-Glo); format: biochemical; conditions: 10 µM ATP
T2 construct: kinase domain, amino acids 470 to 798; made in house; host or cells: bacteria
T2 sequence (Q8TF76 470-798): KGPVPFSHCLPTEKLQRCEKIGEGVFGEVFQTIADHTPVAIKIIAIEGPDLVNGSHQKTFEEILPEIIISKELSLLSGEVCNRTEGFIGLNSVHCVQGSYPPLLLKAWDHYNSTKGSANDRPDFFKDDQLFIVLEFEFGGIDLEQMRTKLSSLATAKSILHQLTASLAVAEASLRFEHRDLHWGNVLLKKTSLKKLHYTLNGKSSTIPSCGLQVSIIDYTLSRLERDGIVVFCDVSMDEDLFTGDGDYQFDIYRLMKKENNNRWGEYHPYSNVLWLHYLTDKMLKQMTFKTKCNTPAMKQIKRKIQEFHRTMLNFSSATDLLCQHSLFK
Method: HsHASPIN (human, kinase domain, amino acids 470 to 798, recombinant, expressed in bacteria) was assayed in buffer A with 0.007 µg/µL of Histone H3 (1-21) peptide ([…]) as substrate;

CDK2/CyclinA = CDK2/CyclinA (Homo sapiens, UniProt P24941); assay: Kinase inhibition assay (ADP-Glo); format: biochemical; conditions: 10 µM ATP
Method: HsCDK2/CyclinA (human, cyclin-dependent kinase-2, kindly provided by Dr. A. Echalier-Glazer, Leicester, UK) was assayed in buffer A with 0.8 µg/µL of histone H1 as substrate.

CDK9/CyclinT = CDK9/CyclinT (Homo sapiens, UniProt P50750); assay: Kinase inhibition assay (ADP-Glo)
CLK1 = target: T3, CLK1 (Mus musculus, UniProt P22518); assay: Kinase inhibition assay (ADP-Glo); format: biochemical; conditions: 10 µM ATP
T3 construct: made in house; host or cells: bacteria
Method: MmCLK1 (from Mus musculus, recombinant, expressed in bacteria) was assayed in buffer A with 0.027μg/µL of the following peptide: GRSRSRSRSRSR as substrate.

[1] = tested on: Peripheral Blood Mononuclear Cells (PBMCs); assay: MTT cytotoxicity in normal cells, 72 h; format: cell-based, human; conditions: Homo sapiens, PBMC, 72 h of incubation
Method: In order to evaluate the cytotoxic potential in normal cells, all the derivatives were tested against Peripheral Blood Mononuclear Cells (PBMCs) and the most promising compounds were again compounds 3c and 4a, which offered more selectivity against the cancer cells.
Mononuclear cells were obtained from the peripheral blood of healthy volunteers by heparin tube collection and isolated by Ficoll-Histopaque gradient centrifugation. After centrifugation, the cells were harvested, washed and resuspended in RPMI 1640 medium supplemented with 20% fetal bovine serum, 2 mM glutamine, 100 U/mL penicillin and 100 μg/mL streptomycin (Gibco™ Life Technologies, Waltham, MA, USA). The phytohemagglutinin mitogen 2% was also added into the culture medium. After that, using the neubauer chamber, the cells were counted and plated in a 96-well plate at a concentration of 10^6 cells/mL and then were maintained for overnight under incubation at 37 °C and 5% CO2 [65].
(§1) The evaluation of the cytotoxicity of the compounds was performed by the method of 3-(4,5-dimethyl-2-thiazolyl)-2,5-diphenyl-2H-tetrazolium bromide (MTT) (Sigma Aldrich Co., St. Louis, MO, USA). To perform the assay the cells were seeded in 96-well plates at the following concentrations: HL-60 and K562 (0.3 × 10^6 cells/mL); MOLT-4 and PBMC (10^6 cells/mL); NCI-H292, HT-29, HEp-2 e MCF-7 (10^5 cells/mL). Briefly, the compounds previously dissolved in DMSO (dimethylsulfoxide, Vetec, São Paulo, Brazil), were diluted in medium and added to each well at the desired concentrations. For the calculation of the concentration that inhibits 50% of cell growth (IC50) the compounds were serially diluted to obtain the final concentrations between 0.19–25 μg/mL. Doxorubicin was used as the standard in the concentration range between (0.078–10 μg/mL). After 72 h of contact of the cells with the compounds, it was added to each well 25 μL of MTT solution (5 mg/mL). Plates were left for another 3 h in incubator at 37 °C and at the end of that period the supernatant was aspirated. To perform the reading, 100 μL of DMSO was added in each well for the dissolution of the formazan crystals. The amount of formazan was measured by reading the plate at 560 nm absorbance. The IC50 was calculated from the nonlinear regression in the Prisma 7.0 software (GraphPad, San Diego, CA, USA). Each sample was tested in triplicate in three independent experiments.

HT-29 = assay: MTT cytotoxicity, 72 h; format: cell-based, human; conditions: Homo sapiens, HT-29, 72 h of incubation
Method: (§2) The cytotoxicity assessment was performed against three human cancer cell lines in suspension (K562, HL-60 and MOLT-4) and four adhered (HEp-2, NCI-H292, HT-29 and MCF-7).
(§3) The cells were obtained from the Cell Bank of Rio de Janeiro and maintained in the Laboratory of Cell Culture of the Department of Antibiotics of the Federal University of Pernambuco. The lines K562 (myeloblastic leukaemia), HL-60 (promyelocytic leukemia) and MOLT-4 (lymphoblastic leukemia) were cultured in RPMI 1640 medium and the lines HEp-2 (larynx carcinoma), NCI-H292 (lung carcinoma), HT-29 (colon adenocarcinoma) and MCF-7 (breast adenocarcinoma) were cultured in DMEM medium, supplemented with 10% fetal bovine serum, 2 mM glutamine, 100 U/mL penicillin and 100 μg/mL streptomycin (Gibco™ Life Technologies), at 37 °C and 5% CO2.
as §1

HL-60 = assay: MTT cytotoxicity, 72 h; format: cell-based, human; conditions: for selectivity index (SI = IC50 PBMC/ IC50 cancer cells): HL-60 versus PBMC; for IC50: Homo sapiens, HL-60, MTT, 72 h of incubation
Method: as §2, §3, §1

HEp-2 = assay: MTT cytotoxicity, 72 h; format: cell-based, human; conditions: Homo sapiens, HEp-2, 72 h of incubation
Method: as §2, §3, §1

NCI-H292 = assay: MTT cytotoxicity, 72 h; format: cell-based, human; conditions: Homo sapiens, NCI-H292, 72 h of incubation
Method: as §2, §3, §1

MCF-7 = assay: MTT cytotoxicity, 72 h; format: cell-based, human; conditions: Homo sapiens, MCF7, 72 h of incubation
Method: as §2, §3, §1

K562 = assay: MTT cytotoxicity, 72 h; format: cell-based, human; conditions: Homo sapiens, K562, 72 h of incubation
Method: as §2, §3, §1

T3 sequence (P22518 whole entry): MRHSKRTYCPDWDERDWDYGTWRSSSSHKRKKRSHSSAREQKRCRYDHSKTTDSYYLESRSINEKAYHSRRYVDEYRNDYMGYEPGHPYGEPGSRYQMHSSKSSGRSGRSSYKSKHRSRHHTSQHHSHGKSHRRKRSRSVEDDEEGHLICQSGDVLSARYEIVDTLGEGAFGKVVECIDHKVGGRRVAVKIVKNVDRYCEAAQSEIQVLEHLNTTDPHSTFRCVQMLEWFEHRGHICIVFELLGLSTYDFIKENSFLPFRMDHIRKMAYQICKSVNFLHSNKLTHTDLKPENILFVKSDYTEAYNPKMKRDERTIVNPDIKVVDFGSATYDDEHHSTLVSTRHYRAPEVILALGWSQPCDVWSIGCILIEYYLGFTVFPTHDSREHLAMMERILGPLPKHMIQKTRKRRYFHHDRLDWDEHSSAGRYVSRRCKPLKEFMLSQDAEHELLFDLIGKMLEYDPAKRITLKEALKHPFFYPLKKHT
T1 sequence (P11309 whole entry): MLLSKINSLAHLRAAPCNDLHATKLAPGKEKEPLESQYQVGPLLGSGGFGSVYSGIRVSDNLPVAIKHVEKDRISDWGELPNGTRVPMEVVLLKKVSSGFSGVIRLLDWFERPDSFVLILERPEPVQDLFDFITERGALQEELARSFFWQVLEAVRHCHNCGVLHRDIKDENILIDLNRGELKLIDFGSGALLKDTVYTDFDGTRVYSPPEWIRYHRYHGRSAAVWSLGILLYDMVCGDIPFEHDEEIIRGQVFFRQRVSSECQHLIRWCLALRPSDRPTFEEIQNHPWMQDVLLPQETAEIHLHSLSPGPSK
Sequence of CDK9/CyclinT (P50750 whole entry): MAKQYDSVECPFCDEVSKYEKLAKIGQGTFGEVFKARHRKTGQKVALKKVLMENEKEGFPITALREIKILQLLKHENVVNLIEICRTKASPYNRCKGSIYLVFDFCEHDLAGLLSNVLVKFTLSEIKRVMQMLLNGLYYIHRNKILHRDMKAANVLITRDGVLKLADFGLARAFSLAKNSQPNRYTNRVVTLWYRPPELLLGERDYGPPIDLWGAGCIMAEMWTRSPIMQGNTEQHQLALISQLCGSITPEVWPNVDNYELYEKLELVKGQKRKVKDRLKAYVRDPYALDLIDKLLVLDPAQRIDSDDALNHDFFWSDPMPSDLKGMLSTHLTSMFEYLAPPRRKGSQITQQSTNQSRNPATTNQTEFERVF
Sequence of CDK9/CyclinT (O60563 whole entry partner): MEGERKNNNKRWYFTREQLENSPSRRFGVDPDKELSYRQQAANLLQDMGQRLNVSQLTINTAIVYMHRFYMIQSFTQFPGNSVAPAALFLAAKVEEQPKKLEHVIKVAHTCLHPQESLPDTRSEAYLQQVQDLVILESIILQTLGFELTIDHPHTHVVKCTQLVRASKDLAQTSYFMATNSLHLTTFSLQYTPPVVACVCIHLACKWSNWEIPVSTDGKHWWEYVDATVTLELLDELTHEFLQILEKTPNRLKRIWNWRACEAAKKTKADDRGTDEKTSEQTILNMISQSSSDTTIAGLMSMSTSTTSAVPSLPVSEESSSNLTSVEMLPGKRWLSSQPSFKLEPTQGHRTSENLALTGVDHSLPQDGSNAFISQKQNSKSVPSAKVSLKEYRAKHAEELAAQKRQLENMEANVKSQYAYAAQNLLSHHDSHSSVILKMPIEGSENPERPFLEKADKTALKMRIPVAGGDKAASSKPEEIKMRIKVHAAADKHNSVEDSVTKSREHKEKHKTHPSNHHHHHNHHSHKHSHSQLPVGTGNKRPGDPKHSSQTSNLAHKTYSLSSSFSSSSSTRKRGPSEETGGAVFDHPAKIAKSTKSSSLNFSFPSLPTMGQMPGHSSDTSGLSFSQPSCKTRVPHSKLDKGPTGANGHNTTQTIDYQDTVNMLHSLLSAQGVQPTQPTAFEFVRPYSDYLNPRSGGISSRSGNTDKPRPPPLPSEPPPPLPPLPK

IC50 (PIM1) [µM] | IC50 (CK1δ/ε) [µM] | IC50 (HASPIN) [µM] | IC50 (CDK2/CyclinA) [µM] | IC50 (CDK9/CyclinT) [µM] | IC50 (CLK1) [µM] | SMILES | IC50 [1] [µM] | IC50 (HT-29) [µM] | selectivity index (SI = IC50 PBMC/ IC50 cancer cells) (HL-60) | IC50 (HL-60) [µM] | IC50 (HEp-2) [µM] | IC50 (NCI-H292) [µM] | IC50 (MCF-7) [µM] | IC50 (K562) [µM]
0.52 | > 10 | > 10 | 0.53 | 0.86 | 0.29 | NC(=O)N/N=C/c1c(O)ccc2ccccc12 [Compound 3c, 2-Hydroxynaphthaldehyde Semicarbazone] | 82 ± 1.63 | 40.6 ± 1.02 | 6.2 | 13.1 ± 0.62 | 37.1 ± 1.5 | 56.3 ± 3.05 | 34 ± 1.06 | 52.3 ± 1.15
> 10 | > 10 | > 10 | > 10 | > 10 | > 10 | Cc1ccc(C=NNC(N)=O)cc1 [Compound 3g, 4-Methylbenzaldehyde Semicarbazone] | > 100 | > 100 | – | 48.5 ± 1.63 | 24.3 ± 0.97 | > 100 | > 100 | 33.3 ± 0.71
> 10 | 0.76 | > 10 | > 10 | > 10 | > 10 | CCCCN(N=Cc1ccc([N+](=O)[O-])o1)C(N)=O [Compound 4a, 5-Nitro-2-(N^2-n-butyl)furfuraldehyde Semicarbazone] | 51.2 ± 0.75 | 36.3 ± 0.97 | 4.5 | 11.4 ± 0.27 | 34.4 ± 0.88 | 37.9 ± 1.5 | 33.6 ± 0.71 | 24.2 ± 1.15
